Assay results as given in US20120022058A1, “4,5-DIHYDRO-1H-PYRAZOLE COMPOUNDS AND THEIR PHARMACEUTICAL USES” (Pfizer Inc., priority 2009, published 2012).

Molecular target: T1, MR (Homo sapiens, UniProt P08235)
T1 construct: expressed in transfected cells; host or cells: Huh7 human liver cells, transient transfection
T1 sequence (P08235 726-964 limits assumed): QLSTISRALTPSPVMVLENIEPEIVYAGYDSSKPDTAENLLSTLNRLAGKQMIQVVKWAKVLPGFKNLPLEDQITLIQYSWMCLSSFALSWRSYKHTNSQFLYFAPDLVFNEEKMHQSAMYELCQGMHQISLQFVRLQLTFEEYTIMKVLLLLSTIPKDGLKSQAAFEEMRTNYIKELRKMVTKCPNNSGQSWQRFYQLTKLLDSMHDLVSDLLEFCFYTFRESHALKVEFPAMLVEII
Assay: Cell-Based Reporter Assay (Gal4 DBD-MR LBD luciferase reporter, antagonist mode);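 note: cells co-transfected with a Gal4 response element luciferase plasmid, compound exposure overnight before lysis and luminescence counting, IC50 reflects reduced aldosterone-stimulated reporter signal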
Conditions: antagonist mode vs aldosterone at EC80; transfected human liver cells (Huh7); luciferase readout; Examples 3, 6, 12 and 13 tested in analogous format with minor variations

Row | Compound | IC50 [µM]
1 | COc1cccc(C2=NN(c3ccc(C#N)c(C)n3)[C@@H](C3CCCC3)C2)c1 [Example 43, (R)-6-(5-cyclopentyl-3-(3-methoxyphenyl)-4,5-dihydro-1H-pyrazol-1-yl)-2-methylnicotinonitrile] | 0.13
2 | Cc1nc(N2N=C(c3ccc4c(c3)OCC(=O)N4)C[C@@H]2C2CCCC2)ccc1C#N [Example 46, (R)-6-(5-cyclopentyl-3-(3-oxo-3,4-dihydro-2H-benzo[b][1,4]oxazin-7-yl)-4,5-dihydro-1H-pyrazol-1-yl)-2-methylnicotinonitrile] | 0.042
3 | COc1cc(C2=NN(c3ccc(C#N)c(C)n3)[C@@H](C3CCCC3)C2)ccc1O [Example 52, (R)-6-(5-cyclopentyl-3-(4-hydroxy-3-methoxyphenyl)-4,5-dihydro-1H-pyrazol-1-yl)-2-methylnicotinonitrile] | 0.0623
4 | COc1cc(C2=NN(c3ccc(C#N)c(C)n3)[C@@H](C3CCCC3)C2)ccc1CC(=O)O [Example 54, (R)-2-(4-(1-(5-cyano-6-methylpyridin-2-yl)-5-cyclopentyl-4,5-dihydro-1H-pyrazol-3-yl)-2-methoxyphenyl)acetic acid] | 0.0957
5 | Cc1cc(C2=NN(c3ccc(C#N)c(C)n3)[C@@H](C3CCCC3)C2)cc(C)c1O [Example 57, (R)-6-(5-cyclopentyl-3-(4-hydroxy-3,5-dimethylphenyl)-4,5-dihydro-1H-pyrazol-1-yl)-2-methylnicotinonitrile] | 0.503
6 | Cc1nc(N2N=C(c3cc(F)c(O)c(F)c3)C[C@@H]2C2CCCC2)ccc1C#N [Example 61, (R)-6-(5-cyclopentyl-3-(3,5-difluoro-4-hydroxyphenyl)-4,5-dihydropyrazol-1-yl)-2-methylnicotinonitrile] | 0.208
7 | Cc1nc(N2N=C(c3ccc(O)c(F)c3)C[C@@H]2C2CCCC2)ccc1C#N [Example 62, (R)-6-(5-cyclopentyl-3-(3-fluoro-4-hydroxyphenyl)-4,5-dihydropyrazol-1-yl)-2-methylnicotinonitrile] | 0.0923
8 | CC(=O)Nc1cccc(C2=NN(c3ccc(C#N)c(C)n3)[C@@H](C3CCCC3)C2)n1 [Example 66, (R)—N-(6-(1-(5-cyano-6-methylpyridin-2-yl)-5-cyclopentyl-4,5-dihydro-1H-pyrazol-3-yl)pyridin-2-yl)acetamide] | 0.255
9 | Cc1nc(N2N=C(c3cccc(OC(C)C)n3)C[C@@H]2C2CCCC2)ccc1C#N [Example 67, (R)-6-(5-cyclopentyl-3-(6-isopropoxypyridin-2-yl)-4,5-dihydro-1H-pyrazol-1-yl)-2-methylnicotinonitrile] | 0.17
10 | COc1nc(C2=NN(c3ccc(C#N)c(C)c3)C(C3CC(F)(F)C3)C2)ccc1C(=O)O (stereo not drawn) [Example 70, 6-(1-(4-cyano-3-methylphenyl)-5-(3,3-difluorocyclobutyl)-4,5-dihydro-1H-pyrazol-3-yl)-2-methoxynicotinic acid] | 0.147

The next molecules have a lower IC50 than those just listed; values first:

Row | IC50 [µM] | Compound
11 | 0.0206 | Cc1nc(N2N=C(c3ccc4c(c3)CCC(=O)N4)C[C@@H]2C2CCCC2)ccc1C#N [Example 45, (R)-6-(5-cyclopentyl-3-(2-oxo-1,2,3,4-tetrahydroquinolin-6-yl)-4,5-dihydro-1H-pyrazol-1-yl)-2-methylnicotinonitrile]
12 | 0.012 | Cc1nc(N2N=C(c3ccc4c(c3)CNC(=O)N4)C[C@@H]2C2CCCC2)ccc1C#N [Example 47, (R)-6-(5-cyclopentyl-3-(2-oxo-1,2,3,4-tetrahydroquinazolin-6-yl)-4,5-dihydro-1H-pyrazol-1-yl)-2-methylnicotinonitrile]
13 | 0.0082 | CCOc1nc(C2=NN(c3ccc(C#N)c(C)n3)[C@@H](C3CCCC3)C2)ccc1C(=O)O [Example 51, (R)-6-(1-(5-cyano-6-methylpyridin-2-yl)-5-cyclopentyl-4,5-dihydro-1H-pyrazol-3-yl)-2-ethoxynicotinic acid]
14 | 0.0039 | CCOc1nc(C2=NN(c3ccc(C#N)c(C)c3)[C@@H](C3CCCC3)C2)ccc1C(N)=O [Example 55, (R)-6-(1-(4-cyano-3-methylphenyl)-5-cyclopentyl-4,5-dihydro-1H-pyrazol-3-yl)-2-ethoxynicotinamide]
15 | 0.01 | Cc1nc(N2N=C(c3ccc4c(c3)C(C)(C)OC(=O)N4)C[C@@H]2C2CCCC2)ccc1C#N [Example 64, (R)-6-(5-cyclopentyl-3-(4,4-dimethyl-2-oxo-2,4-dihydro-1H-benzo[d][1,3]oxazin-6-yl)-4,5-dihydro-1H-pyrazol-1-yl)-2-methylnicotinonitrile]
